Values joined by “and” are separate entries in the source; they are usually repeats but may differ in a detail not shown here. Identical values can stand only once.
Columns and labels:
[1] = biological target: T1, Sirt1 (Homo sapiens, UniProt Q96EB6); experiment: Enzyme-based Sirt1 inhibition assay at 10 μM; type: biochemical; conditions: for % inhibition at 10 μM Sirt1: mean of three independent experiments; for inhibition at 10 µM: read-out: % inhibition at 10 μM Sirt1, 10 μM, mean of three independent experiments
T1 sequence (Q96EB6 1-747): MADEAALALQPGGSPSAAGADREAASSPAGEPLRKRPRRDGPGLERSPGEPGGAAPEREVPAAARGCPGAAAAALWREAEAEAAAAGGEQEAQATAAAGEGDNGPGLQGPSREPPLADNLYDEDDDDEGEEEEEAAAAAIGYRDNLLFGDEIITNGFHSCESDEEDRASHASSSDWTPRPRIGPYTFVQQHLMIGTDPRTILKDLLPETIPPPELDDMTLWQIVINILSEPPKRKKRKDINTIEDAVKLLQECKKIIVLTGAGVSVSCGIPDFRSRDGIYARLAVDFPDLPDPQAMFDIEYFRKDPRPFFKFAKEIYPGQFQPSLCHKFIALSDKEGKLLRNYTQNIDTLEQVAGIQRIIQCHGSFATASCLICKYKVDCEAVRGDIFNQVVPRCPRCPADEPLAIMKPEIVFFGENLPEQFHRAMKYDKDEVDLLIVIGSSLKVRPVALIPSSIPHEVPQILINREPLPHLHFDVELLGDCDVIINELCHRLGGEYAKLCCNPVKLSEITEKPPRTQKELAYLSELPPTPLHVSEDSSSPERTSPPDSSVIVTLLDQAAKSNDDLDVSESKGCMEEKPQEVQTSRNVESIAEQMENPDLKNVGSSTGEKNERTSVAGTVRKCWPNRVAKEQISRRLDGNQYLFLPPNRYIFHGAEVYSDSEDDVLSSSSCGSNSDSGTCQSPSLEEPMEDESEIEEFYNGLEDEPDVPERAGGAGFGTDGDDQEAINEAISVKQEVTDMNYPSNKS

[2] = biological target: T1, Sirt1; experiment: Cell-based Sirt1 inhibition in HepG2 cells; conditions: HepG2, read-out: % Inhibition Sirt1, HepG2 cells, 10 μM, 6 h; n = 3
[3] = test system: Sirt2 + Sirt3; experiment: Cell-based Sirt2/Sirt3 joint inhibition in HepG2 cells; set-up: species or system human; conditions: 10 μM, 6 h
[4] = test system: HepG2 cells; experiment: MTT cell viability assay, HepG2; type: cell-based, human; conditions: 1-400 μM, 24 h
[5] = test system: MCF7 cells; experiment: MTT cell viability assay, MCF7; type: cell-based, human; conditions: 1-400 μM, 24 h
[6] = test system: Ac-p53 in HepG2 cells; experiment: Western blotting for acetylated p53; type: cell-based, human; conditions: 25 μM, 48 h, western blot
[7] = biological target: T1, Sirt1; experiment: Concentration-dependent Sirt1 inhibition
[8] = joint inhibition of Sirt2 and Sirt3, n = 3, 10 µM

Row | % inhibition at 10 μM Sirt1 [1] [%] | inhibition at 10 µM [1] [%] | inhibition at 10 µM [2] [%] | Compound | other results
1 | 89.64 | > 80 | ≥ 30 | O=C(O)[C@H](Cc1c[nH]c2ccccc12)N1C(=O)C(=Cc2c[nH]nc2-c2ccc([N+](=O)[O-])cc2)SC1=S [Compound 13l] | % Inhibition Sirt2 + Sirt3 [3, 8]: 9% and 9.47 ± 0.92%; Effect on HepG2 cell viability [4]: very less decrease in cell viability; Effect on MCF7 cell viability [5]: no significant changes in cell viability; Ac-p53 levels in HepG2 cells [6]: no major change; IC50 [7]: 730 ± 60 nM
2 | – | < 30 | – | C[C@@H](C(=O)O)N1C(=O)C(=Cc2c[nH]nc2-c2ccc([N+](=O)[O-])cc2)SC1=S [Compound 13j] | –
3 | – | < 30 | – | C[C@H](NC(=O)c1ccc2c(c1)nc(-c1ccc(F)cc1)n2C1CCCCC1)C(=O)O [Compound 7e] | –
4 | – | < 30 | – | C[C@@H](C(=O)O)N1C(=O)C(=Cc2c[nH]nc2-c2cc(F)cc(F)c2)SC1=S [Compound 13f] | –
5 | 86.34 | > 80 | 3.24 ± 0.27 | COc1ccc(-c2nc3cc(C(=O)N[C@@H](CC(C)C)C(=O)O)ccc3n2C2CCCCC2)cc1 [Compound 7c] | % Inhibition Sirt2 + Sirt3 ([3]; joint inhibition of Sirt2 and Sirt3, n = 3): 5.21 ± 0.78%
6 | 89.99 | > 80 | ≥ 30 | COc1ccc(-c2nc3cc(C(=O)N[C@@H](Cc4c[nH]c5ccccc45)C(=O)O)ccc3n2C2CCCCC2)cc1 [Compound 7d] | % Inhibition Sirt2 + Sirt3 [3, 8]: 19% and 20% and 19.89 ± 0.89%; Effect on HepG2 cell viability [4]: continuous decrease in cell viability with increasing inhibitor concentration; Effect on MCF7 cell viability [5]: continuous and comparatively higher decrease in cell viability with increasing inhibitor concentration; Ac-p53 levels in HepG2 cells [6]: increased the Ac-p53 levels in HepG2 cells comparable to the positive control; IC50 [7]: 770 ± 40 nM
7 | – | < 30 | – | COc1ccc(-c2n[nH]cc2C=C2SC(=S)N([C@@H](Cc3ccccc3)C(=O)O)C2=O)cc1 [Compound 13c] | –
8 | 88.03 | > 80 | < 1 | COc1ccc(-c2nc3cc(C(=O)N[C@@H](C)C(=O)O)ccc3n2C2CCCCC2)cc1 [Compound 7a] | –
9 | – | < 30 | – | COc1ccc(-c2n[nH]cc2C=C2SC(=S)N([C@@H](C)C(=O)O)C2=O)cc1 [Compound 13b] | –
10 | – | < 30 | – | O=C(N[C@@H](Cc1c[nH]c2ccccc12)C(=O)O)c1ccc2c(c1)nc(-c1c(F)cccc1Cl)n2C1CCCCC1 [Compound 7l] | –
11 | 88.18 | > 80 | < 1 | COc1ccc(-c2nc3cc(C(=O)N[C@H](C(=O)O)C(C)C)ccc3n2C2CCCCC2)cc1 [Compound 7b] | –
12 | – | < 30 | – | O=C(O)[C@H](Cc1ccccc1)N1C(=O)C(=Cc2c[nH]nc2-c2cc(F)cc(F)c2)SC1=S [Compound 13g] | –
13 | – | < 30 | – | O=C(O)[C@H](Cc1ccccc1)N1C(=O)C(=Cc2c[nH]nc2-c2ccc([N+](=O)[O-])cc2)SC1=S [Compound 13k] | –
14 | – | 80.8 | < 1 | CC(C)C[C@H](NC(=O)c1ccc2c(c1)nc(-c1ccc(F)cc1)n2C1CCCCC1)C(=O)O [Compound 7g] | –
15 | 89.15 | > 80 | ≥ 30 | O=C(O)[C@H](Cc1c[nH]c2ccccc12)N1C(=O)C(=Cc2c[nH]nc2-c2cc(F)cc(F)c2)SC1=S [Compound 13h] | % Inhibition Sirt2 + Sirt3 [3, 8]: 10% and 9.53 ± 0.65%; Effect on HepG2 cell viability [4]: very less decrease in cell viability; Effect on MCF7 cell viability [5]: no significant changes in cell viability; Ac-p53 levels in HepG2 cells [6]: no major change; IC50 [7]: 660 ± 20 nM
16 | 90.64 | > 80 | ≥ 30 | COc1ccc(-c2n[nH]cc2C=C2SC(=S)N([C@@H](Cc3c[nH]c4ccccc34)C(=O)O)C2=O)cc1 [Compound 13d] | % Inhibition Sirt2 + Sirt3 [3, 8]: 6% and 6.04 ± 0.91%; Effect on MCF7 cell viability [5]: no significant changes in cell viability; Ac-p53 levels in HepG2 cells [6]: no major change; IC50 [7]: 710 ± 30 nM
17 | – | < 30 | – | CC(C)[C@H](NC(=O)c1ccc2c(c1)nc(-c1ccc(F)cc1)n2C1CCCCC1)C(=O)O [Compound 7f] | –
18 | – | 86.8 | < 1 | O=C(N[C@@H](Cc1c[nH]c2ccccc12)C(=O)O)c1ccc2c(c1)nc(-c1ccc(F)cc1)n2C1CCCCC1 [Compound 7h] | –
